Tests used:
rats = settings: rat, in vivo; cited from earlier work
[1] = cited from earlier work
skin = assay: Preliminary safety evaluation of topical exposure (SLS or UVB provoked skin), methodological study on humans; assay type: in vivo, human
Source text: Skin irritation and dermatitis is a common problem among health care professionals due to frequent washing. We have utilized two well-established skin irritation models to investigate the effect of topically administered uridine or isomalt on skin physiology including measurement of dermal blood flow. Isomalt consists of 1,6-glucopyranosyl-D-sorbitol (GPS, isomaltitol) and 1,1-glucopyranosyl-D-mannitol (GPM) in a 1:1 ratio. The methodological study involves the study of various physiological parameters, such as dermal blood flow and visual assessment of erythema, subsequent to provocation by either exposure to UVB light or Sodium Lauryl Sulphate (SLS) and the effects of isomalt and uridine on these parameters. Only a very small area of the skin was exposed to the irritants UVB or SLS. The methodological study has been approved by the Medical Products Agency, Sweden and the Regional Ethical Review Board, Linköping, Sweden.
UVB provocation with a divergent beam produces a circular, radially fading skin erythema, the diameter of which corresponds to the minimal erythemal dose. […] SLS, which is a detergent, creates a local skin irritation mainly by disturbing the skins barrier function. A methodological study has been performed, both to evaluate the effects of uridine or isomalt on skin UVB-induced erythema and SLS irritation. […]

In the case of OC[C@H](O)[C@@H](O)[C@H](O)[C@H](O)CO[C@H]1O[C@H](CO)[C@@H](O)[C@H](O)[C@H]1O [isomaltitol, 6-O-α-D-glucopyranosyl-D-sorbitol], the toxic effect (rats) is given as “doesn't seem to have any toxic effect”, the “rise in blood glucose and insulin levels” value ([1]; compared to sugars and other carbohydrates) is given as “only a very small rise” and the absorption ([1]; in vivo) is given as “very slow and limited”.

For O=c1ccn([C@@H]2O[C@H](CO)[C@@H](O)[C@H]2O)c(=O)[nH]1 [uridine], the “untoward effects such as exacerbated skin irritation or itching related to the exposure” value (skin; saturated solution, topical exposure for 24 hours, all individuals) was “no untoward effects”.

With isomalt the “untoward effects such as exacerbated skin irritation or itching related to the exposure” value (skin; in vivo) was “no untoward effects”.

Source: patent US20080004235A1, “TOPICAL COMPOSITIONS COMPRISING ONE OR MORE OF 4-THIOURIDINE, ISOMALTITOL AND URIDINE” (priority 2005, published 2008)
